Reference: US9249129B2, “Morpholino substituted urea derivatives as mTOR inhibitors” (CELLZOME LIMITED, priority 2010, dated 2016)

Legend:
Test in all cases: kinobeads assay with mass spectrometry detection of kinases (kinase selectivity profile)
Format in all cases: binding
[1] = target: T1, kinases (kinome) (Homo sapiens, UniProt P43403); settings: ZAP70 (TK), IPI00329789
T1 construct: determined in kinobeads assays with mass spectrometry detection of kinases as described previously; endogenous in cells; host or cells: cell lysate
T1 sequence (P43403 1-619): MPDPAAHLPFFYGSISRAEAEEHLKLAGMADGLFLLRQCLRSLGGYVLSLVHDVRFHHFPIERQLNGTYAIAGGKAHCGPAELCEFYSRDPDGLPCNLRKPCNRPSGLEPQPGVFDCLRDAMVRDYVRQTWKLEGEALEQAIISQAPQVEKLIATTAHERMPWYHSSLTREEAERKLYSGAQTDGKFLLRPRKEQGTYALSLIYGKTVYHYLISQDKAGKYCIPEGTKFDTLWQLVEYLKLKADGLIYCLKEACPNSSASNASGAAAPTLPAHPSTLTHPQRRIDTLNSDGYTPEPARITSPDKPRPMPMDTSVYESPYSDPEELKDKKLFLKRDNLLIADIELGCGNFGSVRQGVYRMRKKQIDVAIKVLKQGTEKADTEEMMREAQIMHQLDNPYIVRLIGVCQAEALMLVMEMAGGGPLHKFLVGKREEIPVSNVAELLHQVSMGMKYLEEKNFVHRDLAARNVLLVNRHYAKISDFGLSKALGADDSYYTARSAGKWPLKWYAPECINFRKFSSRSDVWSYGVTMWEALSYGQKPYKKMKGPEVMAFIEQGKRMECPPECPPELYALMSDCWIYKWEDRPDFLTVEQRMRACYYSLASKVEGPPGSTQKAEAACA
From the text: (§1) The protein kinase complement of the human genome (the kinome) was described previously (Manning et al., 2002. Science 298(5600):1912-1934). Sequence accession numbers are defined by the International Protein Index (IPI) (Kersey et al., 2004. Proteomics 4(7):1985-1988).

[2] = target: T2, kinases (kinome) (Homo sapiens, UniProt Q13418); settings: ILK (TKL), IPI00013219
T2 construct: determined in kinobeads assays with mass spectrometry detection of kinases as described previously; endogenous in cells; host or cells: cell lysate
T2 sequence (Q13418 1-452): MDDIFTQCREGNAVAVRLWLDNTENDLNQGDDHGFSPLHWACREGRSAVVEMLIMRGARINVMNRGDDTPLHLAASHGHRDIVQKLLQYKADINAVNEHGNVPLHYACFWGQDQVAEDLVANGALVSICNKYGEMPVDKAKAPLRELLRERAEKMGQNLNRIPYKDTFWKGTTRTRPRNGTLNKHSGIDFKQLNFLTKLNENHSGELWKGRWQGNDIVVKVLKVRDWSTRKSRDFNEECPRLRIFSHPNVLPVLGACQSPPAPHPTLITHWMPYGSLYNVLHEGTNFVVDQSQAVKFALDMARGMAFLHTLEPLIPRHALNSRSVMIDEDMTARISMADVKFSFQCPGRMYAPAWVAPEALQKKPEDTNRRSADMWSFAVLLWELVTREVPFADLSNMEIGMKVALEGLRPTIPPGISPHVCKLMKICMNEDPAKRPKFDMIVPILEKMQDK
From the text: as §1

[3] = target: T3, kinases (kinome) (Homo sapiens, UniProt Q13535); settings: ATR (Atypical), IPI00412298; 0.1 μM ranges
T3 construct: determined in kinobeads assays with mass spectrometry detection of kinases as described previously; endogenous in cells; host or cells: cell lysate
T3 sequence (Q13535 whole entry): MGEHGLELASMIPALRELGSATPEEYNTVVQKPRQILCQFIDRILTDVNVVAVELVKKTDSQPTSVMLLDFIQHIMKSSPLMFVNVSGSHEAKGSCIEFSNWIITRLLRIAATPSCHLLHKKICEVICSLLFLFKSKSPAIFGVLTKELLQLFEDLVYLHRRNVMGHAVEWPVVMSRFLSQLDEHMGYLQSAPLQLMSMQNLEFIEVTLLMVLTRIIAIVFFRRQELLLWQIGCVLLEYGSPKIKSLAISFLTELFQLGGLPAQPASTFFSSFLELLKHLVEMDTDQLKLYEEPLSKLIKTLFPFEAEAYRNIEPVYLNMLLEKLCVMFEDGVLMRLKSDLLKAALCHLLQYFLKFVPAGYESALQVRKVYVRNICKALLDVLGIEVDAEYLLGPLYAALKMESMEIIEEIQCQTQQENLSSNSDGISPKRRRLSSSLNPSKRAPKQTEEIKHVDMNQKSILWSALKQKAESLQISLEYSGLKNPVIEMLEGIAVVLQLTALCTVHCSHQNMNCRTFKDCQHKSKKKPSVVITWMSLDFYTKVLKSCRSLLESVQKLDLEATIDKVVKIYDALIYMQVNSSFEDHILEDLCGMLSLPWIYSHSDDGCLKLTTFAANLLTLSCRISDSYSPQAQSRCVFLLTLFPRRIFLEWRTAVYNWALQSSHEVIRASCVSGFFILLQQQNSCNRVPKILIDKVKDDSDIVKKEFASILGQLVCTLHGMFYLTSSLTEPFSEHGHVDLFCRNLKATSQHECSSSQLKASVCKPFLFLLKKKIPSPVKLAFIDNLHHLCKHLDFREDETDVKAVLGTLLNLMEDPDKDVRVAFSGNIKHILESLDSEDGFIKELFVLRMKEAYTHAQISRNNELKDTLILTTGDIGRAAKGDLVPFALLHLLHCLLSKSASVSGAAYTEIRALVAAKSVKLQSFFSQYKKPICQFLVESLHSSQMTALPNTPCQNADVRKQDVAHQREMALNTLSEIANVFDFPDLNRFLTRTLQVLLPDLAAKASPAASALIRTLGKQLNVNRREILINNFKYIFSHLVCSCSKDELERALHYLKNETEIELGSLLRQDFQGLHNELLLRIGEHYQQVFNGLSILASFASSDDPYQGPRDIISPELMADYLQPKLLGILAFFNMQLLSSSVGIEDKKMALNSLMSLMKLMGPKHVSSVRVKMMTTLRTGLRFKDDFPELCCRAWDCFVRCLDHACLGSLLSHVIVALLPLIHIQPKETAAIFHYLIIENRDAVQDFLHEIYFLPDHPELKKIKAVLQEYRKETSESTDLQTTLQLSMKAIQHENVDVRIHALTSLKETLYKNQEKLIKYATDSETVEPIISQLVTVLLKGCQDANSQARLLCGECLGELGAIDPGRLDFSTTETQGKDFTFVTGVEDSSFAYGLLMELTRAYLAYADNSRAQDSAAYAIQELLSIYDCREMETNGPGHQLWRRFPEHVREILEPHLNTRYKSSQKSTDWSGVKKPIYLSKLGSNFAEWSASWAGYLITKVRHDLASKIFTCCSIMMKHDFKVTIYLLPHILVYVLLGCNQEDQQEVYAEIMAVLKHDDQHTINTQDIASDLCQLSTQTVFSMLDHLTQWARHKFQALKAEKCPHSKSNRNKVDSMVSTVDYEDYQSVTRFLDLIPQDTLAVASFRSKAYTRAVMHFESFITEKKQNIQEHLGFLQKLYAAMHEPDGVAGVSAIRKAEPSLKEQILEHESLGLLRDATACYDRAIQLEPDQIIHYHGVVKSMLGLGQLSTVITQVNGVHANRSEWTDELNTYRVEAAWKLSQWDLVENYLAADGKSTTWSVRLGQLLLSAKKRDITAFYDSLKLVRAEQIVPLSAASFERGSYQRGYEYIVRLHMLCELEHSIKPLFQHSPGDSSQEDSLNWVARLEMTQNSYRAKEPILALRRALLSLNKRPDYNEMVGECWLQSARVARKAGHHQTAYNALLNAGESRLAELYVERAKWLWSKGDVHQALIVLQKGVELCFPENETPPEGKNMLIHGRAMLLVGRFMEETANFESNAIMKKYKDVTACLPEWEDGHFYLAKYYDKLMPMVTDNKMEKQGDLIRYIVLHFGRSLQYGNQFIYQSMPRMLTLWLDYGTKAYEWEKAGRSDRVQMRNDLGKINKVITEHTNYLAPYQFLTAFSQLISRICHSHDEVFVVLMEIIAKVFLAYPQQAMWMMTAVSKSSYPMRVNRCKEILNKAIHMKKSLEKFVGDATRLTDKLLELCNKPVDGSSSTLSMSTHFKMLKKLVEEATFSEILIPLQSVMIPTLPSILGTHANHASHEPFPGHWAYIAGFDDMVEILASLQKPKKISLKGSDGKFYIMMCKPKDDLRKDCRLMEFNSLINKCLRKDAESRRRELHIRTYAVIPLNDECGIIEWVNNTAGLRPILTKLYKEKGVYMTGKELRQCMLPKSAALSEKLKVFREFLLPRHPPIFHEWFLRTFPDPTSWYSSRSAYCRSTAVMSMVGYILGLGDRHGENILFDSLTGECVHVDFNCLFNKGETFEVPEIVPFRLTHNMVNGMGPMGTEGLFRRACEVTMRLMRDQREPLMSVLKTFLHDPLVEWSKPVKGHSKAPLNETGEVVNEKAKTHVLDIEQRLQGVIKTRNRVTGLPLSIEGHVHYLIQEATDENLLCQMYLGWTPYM
From the text: as §1

[4] = target: T4, kinases (kinome) (Homo sapiens, UniProt Q99570); settings: PIK3R4 (Other), IPI00024006
T4 construct: determined in kinobeads assays with mass spectrometry detection of kinases as described previously; endogenous in cells; host or cells: cell lysate
T4 sequence (Q99570 whole entry): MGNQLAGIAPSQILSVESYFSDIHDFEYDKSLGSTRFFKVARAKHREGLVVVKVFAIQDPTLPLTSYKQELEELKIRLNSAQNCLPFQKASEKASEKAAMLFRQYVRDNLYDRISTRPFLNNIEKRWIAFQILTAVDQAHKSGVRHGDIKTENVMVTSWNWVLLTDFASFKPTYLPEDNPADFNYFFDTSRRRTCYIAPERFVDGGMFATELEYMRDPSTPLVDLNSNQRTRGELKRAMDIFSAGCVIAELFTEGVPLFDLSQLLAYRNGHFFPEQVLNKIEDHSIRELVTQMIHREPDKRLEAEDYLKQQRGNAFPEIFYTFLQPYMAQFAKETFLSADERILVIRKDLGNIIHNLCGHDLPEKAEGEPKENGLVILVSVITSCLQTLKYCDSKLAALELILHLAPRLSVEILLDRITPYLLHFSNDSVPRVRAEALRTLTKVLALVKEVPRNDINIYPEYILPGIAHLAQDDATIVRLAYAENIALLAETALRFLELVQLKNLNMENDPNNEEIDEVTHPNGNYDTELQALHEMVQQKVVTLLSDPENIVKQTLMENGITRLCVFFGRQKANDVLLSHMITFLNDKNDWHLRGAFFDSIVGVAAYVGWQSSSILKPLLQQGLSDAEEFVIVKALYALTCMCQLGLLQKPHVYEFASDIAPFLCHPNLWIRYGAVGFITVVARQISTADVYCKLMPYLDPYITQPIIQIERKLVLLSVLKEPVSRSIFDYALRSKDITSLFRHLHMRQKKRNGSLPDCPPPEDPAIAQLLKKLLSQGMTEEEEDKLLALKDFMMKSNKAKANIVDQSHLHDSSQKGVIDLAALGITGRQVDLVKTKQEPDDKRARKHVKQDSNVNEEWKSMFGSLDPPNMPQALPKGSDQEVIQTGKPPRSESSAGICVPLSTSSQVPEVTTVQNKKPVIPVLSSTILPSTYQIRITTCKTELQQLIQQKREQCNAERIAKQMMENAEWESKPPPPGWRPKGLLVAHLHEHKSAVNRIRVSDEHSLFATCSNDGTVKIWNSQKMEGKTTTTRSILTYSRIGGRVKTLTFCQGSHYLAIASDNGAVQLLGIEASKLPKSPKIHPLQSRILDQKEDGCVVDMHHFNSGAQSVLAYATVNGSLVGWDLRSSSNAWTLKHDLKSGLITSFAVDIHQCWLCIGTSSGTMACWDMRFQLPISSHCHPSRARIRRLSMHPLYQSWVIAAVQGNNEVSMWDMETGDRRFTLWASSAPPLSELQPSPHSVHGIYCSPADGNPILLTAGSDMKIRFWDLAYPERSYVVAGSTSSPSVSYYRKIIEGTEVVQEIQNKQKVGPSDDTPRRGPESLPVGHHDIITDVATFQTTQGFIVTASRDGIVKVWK
From the text: as §1

[5] = target: T5, kinases (kinome) (Homo sapiens, UniProt P52333); settings: JAK3 (TK), IPI00219418
T5 construct: determined in kinobeads assays with mass spectrometry detection of kinases as described previously; endogenous in cells; host or cells: cell lysate
T5 sequence (P52333 1-1124): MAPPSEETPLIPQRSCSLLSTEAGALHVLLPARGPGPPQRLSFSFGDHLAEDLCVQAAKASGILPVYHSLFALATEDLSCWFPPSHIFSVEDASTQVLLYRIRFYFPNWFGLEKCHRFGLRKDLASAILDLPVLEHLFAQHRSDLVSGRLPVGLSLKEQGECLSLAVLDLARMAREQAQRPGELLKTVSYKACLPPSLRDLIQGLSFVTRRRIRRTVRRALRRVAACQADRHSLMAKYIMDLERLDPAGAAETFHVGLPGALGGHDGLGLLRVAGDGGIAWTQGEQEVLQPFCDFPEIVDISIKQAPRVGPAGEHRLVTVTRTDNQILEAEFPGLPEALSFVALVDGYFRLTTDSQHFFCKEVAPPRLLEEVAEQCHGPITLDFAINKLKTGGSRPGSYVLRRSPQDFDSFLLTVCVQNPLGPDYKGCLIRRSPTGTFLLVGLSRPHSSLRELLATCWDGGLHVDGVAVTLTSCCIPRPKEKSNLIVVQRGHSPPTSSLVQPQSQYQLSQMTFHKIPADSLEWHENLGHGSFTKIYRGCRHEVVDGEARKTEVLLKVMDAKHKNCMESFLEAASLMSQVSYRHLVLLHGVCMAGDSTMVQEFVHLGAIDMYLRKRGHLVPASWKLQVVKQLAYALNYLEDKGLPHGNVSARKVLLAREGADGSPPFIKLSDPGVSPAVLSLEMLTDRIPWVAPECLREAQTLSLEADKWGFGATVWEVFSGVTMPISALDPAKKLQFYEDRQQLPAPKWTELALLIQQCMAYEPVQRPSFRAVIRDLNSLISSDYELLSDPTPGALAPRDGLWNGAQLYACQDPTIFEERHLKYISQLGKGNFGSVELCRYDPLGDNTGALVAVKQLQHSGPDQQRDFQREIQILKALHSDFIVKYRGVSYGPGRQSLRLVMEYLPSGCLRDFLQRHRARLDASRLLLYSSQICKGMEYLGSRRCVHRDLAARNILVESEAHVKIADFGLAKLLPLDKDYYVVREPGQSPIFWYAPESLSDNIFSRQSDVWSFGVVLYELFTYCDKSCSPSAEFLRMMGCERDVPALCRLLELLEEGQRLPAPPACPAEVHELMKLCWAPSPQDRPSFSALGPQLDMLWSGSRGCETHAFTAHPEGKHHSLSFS
From the text: as §1

| Structure (SMILES) | IC50 [1] [µM] | IC50 [2] [µM] | IC50 [3] [µM] | IC50 [4] [µM] | IC50 [5] [µM] |
| --- | --- | --- | --- | --- | --- |
| C[C@H]1COCCN1c1nc(-c2ccc(NC(=O)NC3CC3)cc2)cc(-c2ccccc2S(C)(=O)=O)n1 [Example 4, (S)-1-cyclopropyl-3-(4-(2-(3-methylmorpholino)-6-(2-(methylsulfonyl)phenyl)pyrimidin-4-yl)phenyl)urea] | > 10 | > 10 | > 10 | > 10 |  |
| C[C@H]1COCCN1c1cc(-c2ccccc2S(C)(=O)=O)nc(-c2ccc(NC(=O)NC3CC3)cc2)n1 [Example 6, (S)-1-cyclopropyl-3-(4-(4-(3-methylmorpholino)-6-(2-(methylsulfonyl)phenyl)pyrimidin-2-yl)phenyl)urea] |  |  |  |  | > 10 |
| CCNC(=O)Nc1ccc(-c2cc(-c3ccccc3C#N)nc(N3CCOC[C@@H]3C)n2)cc1 [Example 8, (S)-1-(4-(6-(2-cyanophenyl)-2-(3-methylmorpholino)pyrimidin-4-yl)phenyl)-3-ethylurea] |  | > 10 |  |  |  |
| C[C@H]1COCCN1c1nc(-c2ccc(NC(=O)NC3CC3)cc2)cc(-c2cc(F)ccc2S(C)(=O)=O)n1 [Example 40, (S)-1-cyclopropyl-3-(4-(6-(5-fluoro-2-(methylsulfonyl)phenyl)-2-(3-methylmorpholino)pyrimidin-4-yl)phenyl)urea] | > 10 | > 10 | 1.1 to 1.2 | > 10 | > 10 |
| C[C@H]1COCCN1c1cc(-c2ccccn2)nc(-c2ccc(NC(=O)NCCO)cc2)n1 [Example 43, (S)-1-(2-hydroxyethyl)-3-(4-(4-(3-methylmorpholino)-6-(pyridin-2-yl)pyrimidin-2-yl)phenyl)urea] | > 10 | > 10 | > 10 | > 10 | > 10 |
| C[C@H]1COCCN1c1nc(-c2ccc(NC(=O)NC3CC3)cc2)cc(-c2cccnc2S(C)(=O)=O)n1 [Example 46, (S)-1-cyclopropyl-3-(4-(2-(3-methylmorpholino)-6-(2-(methylsulfonyl)pyridin-3-yl)pyrimidin-4-yl)phenyl)urea] | > 10 |  | > 10 | > 10 | > 10 |
| C[C@H]1COCCN1c1nc(-c2ccc(NC(=O)N[C@H]3CCC[C@@H]3O)cc2)cc(-c2cc(F)ccc2S(C)(=O)=O)n1 [Example 76, 1-(4-(6-(5-fluoro-2-(methylsulfonyl)phenyl)-2-((S)-3-methylmorpholino)pyrimidin-4-yl)phenyl)-3-((1S,2S)-2-hydroxycyclopentyl)urea] |  | > 10 | > 10 | > 10 | > 10 |
